Legend:
Adenosine receptor A3 [1] = molecular target: T1, Adenosine receptor A3 (Homo sapiens, UniProt P0DMS8)
T1 sequence (P0DMS8 whole entry): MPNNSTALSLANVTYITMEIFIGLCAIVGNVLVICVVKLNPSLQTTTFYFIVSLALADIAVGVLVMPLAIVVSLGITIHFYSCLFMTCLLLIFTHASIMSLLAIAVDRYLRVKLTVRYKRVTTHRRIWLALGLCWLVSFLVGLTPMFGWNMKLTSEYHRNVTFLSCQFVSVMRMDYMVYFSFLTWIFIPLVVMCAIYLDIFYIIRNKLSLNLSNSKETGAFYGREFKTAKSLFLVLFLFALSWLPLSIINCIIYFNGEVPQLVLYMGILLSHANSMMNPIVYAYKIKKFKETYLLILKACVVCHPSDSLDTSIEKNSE

[2] = molecular target: Delta-type opioid receptor (Homo sapiens, UniProt P41143)
Delta-type opioid receptor, sequence (P41143 whole entry): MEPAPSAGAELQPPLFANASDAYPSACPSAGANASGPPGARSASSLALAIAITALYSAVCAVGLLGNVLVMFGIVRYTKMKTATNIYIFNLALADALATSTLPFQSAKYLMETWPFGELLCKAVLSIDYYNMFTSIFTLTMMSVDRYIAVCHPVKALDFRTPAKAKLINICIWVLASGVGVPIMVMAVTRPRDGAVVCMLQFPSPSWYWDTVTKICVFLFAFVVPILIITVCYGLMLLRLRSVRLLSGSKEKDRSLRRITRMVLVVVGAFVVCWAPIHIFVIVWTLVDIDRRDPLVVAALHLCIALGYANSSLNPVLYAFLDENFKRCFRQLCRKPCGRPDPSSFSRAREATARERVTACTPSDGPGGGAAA

[3] = molecular target: T2, Amine oxidase [flavin-containing] A (Homo sapiens, UniProt P21397); type: functional
T2 sequence (P21397 whole entry): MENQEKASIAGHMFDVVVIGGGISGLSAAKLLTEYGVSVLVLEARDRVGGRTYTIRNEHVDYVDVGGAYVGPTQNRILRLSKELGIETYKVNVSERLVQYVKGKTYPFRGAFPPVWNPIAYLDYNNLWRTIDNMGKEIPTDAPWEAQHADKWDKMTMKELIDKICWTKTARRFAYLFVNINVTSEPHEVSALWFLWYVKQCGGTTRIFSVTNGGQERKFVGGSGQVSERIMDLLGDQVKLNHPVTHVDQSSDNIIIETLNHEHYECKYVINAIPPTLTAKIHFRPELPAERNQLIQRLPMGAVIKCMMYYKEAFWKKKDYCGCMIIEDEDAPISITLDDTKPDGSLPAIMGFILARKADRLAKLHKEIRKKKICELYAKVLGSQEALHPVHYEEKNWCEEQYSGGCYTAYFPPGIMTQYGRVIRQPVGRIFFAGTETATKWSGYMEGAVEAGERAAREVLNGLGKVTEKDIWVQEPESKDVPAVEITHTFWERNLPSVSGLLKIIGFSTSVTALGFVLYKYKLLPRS

Adenosine receptor A3 [4] = molecular target: T1, Adenosine receptor A3; remark: listed apart in the source
[5] = molecular target: Glutamate receptor ionotropic, NMDA 1 (Rattus norvegicus, UniProt P35439)
Progesterone receptor = molecular target: T3, Progesterone receptor (Homo sapiens, UniProt P06401); type: functional
T3 sequence (P06401 whole entry): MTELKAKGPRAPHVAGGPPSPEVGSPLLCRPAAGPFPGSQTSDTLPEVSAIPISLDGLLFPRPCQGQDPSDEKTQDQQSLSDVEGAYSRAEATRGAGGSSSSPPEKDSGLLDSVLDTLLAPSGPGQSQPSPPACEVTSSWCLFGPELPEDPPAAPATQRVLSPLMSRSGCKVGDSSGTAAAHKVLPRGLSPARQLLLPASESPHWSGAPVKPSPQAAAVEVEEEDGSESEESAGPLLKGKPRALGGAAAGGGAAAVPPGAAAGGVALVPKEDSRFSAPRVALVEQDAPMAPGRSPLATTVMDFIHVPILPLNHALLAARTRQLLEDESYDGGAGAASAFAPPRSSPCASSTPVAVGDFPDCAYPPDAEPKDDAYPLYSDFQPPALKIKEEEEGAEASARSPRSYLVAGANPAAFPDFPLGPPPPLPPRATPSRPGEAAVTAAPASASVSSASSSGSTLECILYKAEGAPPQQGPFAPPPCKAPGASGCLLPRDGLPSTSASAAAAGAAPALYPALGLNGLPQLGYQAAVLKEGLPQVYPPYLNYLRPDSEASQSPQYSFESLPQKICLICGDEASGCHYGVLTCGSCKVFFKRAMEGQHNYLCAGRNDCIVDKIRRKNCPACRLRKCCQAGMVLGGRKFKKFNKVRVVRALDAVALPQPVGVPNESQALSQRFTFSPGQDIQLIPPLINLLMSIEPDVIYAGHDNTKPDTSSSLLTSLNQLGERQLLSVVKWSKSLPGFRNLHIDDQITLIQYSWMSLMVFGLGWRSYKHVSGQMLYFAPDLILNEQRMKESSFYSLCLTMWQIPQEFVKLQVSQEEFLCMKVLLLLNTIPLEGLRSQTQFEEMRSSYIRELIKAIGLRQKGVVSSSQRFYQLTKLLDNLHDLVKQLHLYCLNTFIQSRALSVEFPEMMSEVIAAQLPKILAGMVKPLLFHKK

[6] = molecular target: T4, 5-hydroxytryptamine receptor 2B (Homo sapiens, UniProt P41595); type: functional, cell-based
T4 sequence (P41595 whole entry): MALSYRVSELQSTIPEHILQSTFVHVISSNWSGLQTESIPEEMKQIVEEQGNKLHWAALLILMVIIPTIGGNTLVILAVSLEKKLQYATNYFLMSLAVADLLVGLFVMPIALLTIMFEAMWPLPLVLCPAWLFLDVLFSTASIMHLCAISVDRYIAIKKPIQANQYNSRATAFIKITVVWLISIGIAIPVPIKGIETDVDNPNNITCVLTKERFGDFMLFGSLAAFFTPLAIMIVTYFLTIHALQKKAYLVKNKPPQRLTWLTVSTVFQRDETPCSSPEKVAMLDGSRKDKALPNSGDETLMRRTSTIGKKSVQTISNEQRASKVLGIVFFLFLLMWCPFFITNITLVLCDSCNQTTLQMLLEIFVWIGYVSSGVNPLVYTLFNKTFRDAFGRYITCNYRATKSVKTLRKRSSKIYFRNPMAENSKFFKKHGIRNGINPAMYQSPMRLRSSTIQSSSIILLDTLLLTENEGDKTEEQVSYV

Melanocortin receptor 3 = Melanocortin receptor 3 (Homo sapiens, UniProt P41968)
Melanocortin receptor 3, sequence (P41968 whole entry): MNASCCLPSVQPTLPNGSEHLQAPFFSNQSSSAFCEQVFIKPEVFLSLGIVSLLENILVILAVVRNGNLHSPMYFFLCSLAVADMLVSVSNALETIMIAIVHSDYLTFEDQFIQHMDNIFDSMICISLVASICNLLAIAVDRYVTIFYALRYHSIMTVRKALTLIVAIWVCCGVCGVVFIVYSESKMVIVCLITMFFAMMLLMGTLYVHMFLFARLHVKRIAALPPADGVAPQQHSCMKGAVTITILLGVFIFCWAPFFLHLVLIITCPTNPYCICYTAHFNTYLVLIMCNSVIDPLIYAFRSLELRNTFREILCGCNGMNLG

Adenosine receptor A1 = molecular target: T5, Adenosine receptor A1 (Homo sapiens, UniProt P30542)
T5 sequence (P30542 whole entry): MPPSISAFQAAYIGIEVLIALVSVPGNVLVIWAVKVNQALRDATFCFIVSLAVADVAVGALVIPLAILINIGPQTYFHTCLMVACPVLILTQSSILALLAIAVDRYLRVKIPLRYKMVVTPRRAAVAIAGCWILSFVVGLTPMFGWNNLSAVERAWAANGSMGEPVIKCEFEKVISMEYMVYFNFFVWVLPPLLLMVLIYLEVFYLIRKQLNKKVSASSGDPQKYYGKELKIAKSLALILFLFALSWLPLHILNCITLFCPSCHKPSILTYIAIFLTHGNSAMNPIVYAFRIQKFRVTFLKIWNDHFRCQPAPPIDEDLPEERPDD

[7] = molecular target: T4, 5-hydroxytryptamine receptor 2B; type: functional, cell-based; remark: listed apart in the source
Note: assay procedure not described here.

CC[C@@H]1C[C@]1(NC(=O)[C@@H]1C[C@@H]2CN1C(=O)[C@H](C(C)(C)C)NC(=O)OCC(C)(C)CCCCc1cccc3c1CN(C3)C(=O)O2)C(=O)NS(=O)(=O)C1CC1
AC50 (Adenosine receptor A3 [1]): 12.6 µM

CC(=O)NO [ACETOHYDROXAMIC ACID]
AC50 (Adenosine receptor A3 [1]): > 30 µM

CC(=O)NCCCCCC(=O)O [ACEXAMIC ACID]
AC50 (Adenosine receptor A3 [1]): > 30 µM

CC(=O)Nc1ccc(CC(=O)O)cc1 [ACTARIT]
AC50 [2]: > 30 µM | AC50 [3]: > 30 µM | AC50 (Adenosine receptor A3 [4]): > 30 µM | AC50 [5]: > 30 µM | AC50 (Progesterone receptor): > 30 µM | AC50 [6]: > 30 µM | AC50 (Melanocortin receptor 3): > 30 µM | AC50 (Adenosine receptor A1): > 30 µM | AC50 [7]: > 30 µM

C=C(C)CNc1ccc(C(C)C(=O)O)cc1 (stereo not drawn) [ALMINOPROFEN]
AC50 (Adenosine receptor A3 [1]): > 30 µM

C[C@H]1CN(C[C@H](Cc2ccccc2)C(=O)NCC(=O)O)CC[C@@]1(C)c1cccc(O)c1 [ALVIMOPAN]
AC50 (Adenosine receptor A3 [1]): > 30 µM

CC(C(=O)O)c1ccc2oc(-c3ccc(Cl)cc3)nc2c1 (stereo not drawn) [BENOXAPROFEN]
AC50 [2]: > 30 µM | AC50 [3]: 26 µM | AC50 (Adenosine receptor A3 [4]): > 30 µM | AC50 [5]: > 30 µM | AC50 (Progesterone receptor): > 30 µM | AC50 [6]: > 30 µM | AC50 (Melanocortin receptor 3): > 30 µM | AC50 (Adenosine receptor A1): > 30 µM | AC50 [7]: > 30 µM

O=C(O)c1ccccc1 [BENZOIC ACID]
AC50 (Adenosine receptor A3 [1]): > 30 µM

CC=CC1=C(C(=O)O)N2C(=O)[C@@H](NC(=O)[C@H](N)c3ccc(O)cc3)[C@H]2SC1 [CEFPROZIL]
AC50 [2]: > 30 µM | AC50 [3]: > 30 µM | AC50 (Adenosine receptor A3 [4]): > 30 µM | AC50 [5]: > 30 µM | AC50 (Progesterone receptor): > 30 µM | AC50 [6]: > 30 µM | AC50 (Melanocortin receptor 3): > 30 µM | AC50 (Adenosine receptor A1): > 30 µM | AC50 [7]: > 30 µM

C[C@H]1O[C@@H](O[C@H]2CC[C@@]3(C)[C@H](CC[C@@H]4[C@@H]3C[C@@H](O)[C@]3(C)[C@@H](C5=CC(=O)OC5)CC[C@]43O)C2)C[C@H](O)[C@@H]1O[C@H]1C[C@H](O)[C@H](O[C@H]2C[C@H](O)[C@H](O[C@@H]3O[C@H](CO)[C@@H](O)[C@H](O)[C@H]3O)[C@@H](C)O2)[C@@H](C)O1 [DESLANOSIDE]
AC50 (Adenosine receptor A3 [1]): > 30 µM

CCCCc1oc2ccc(NS(C)(=O)=O)cc2c1C(=O)c1ccc(OCCCN(CCCC)CCCC)cc1 [DRONEDARONE]
AC50 (Adenosine receptor A3 [1]): 1.54 µM

CNC[C@H](O)c1ccc(O)c(O)c1 [EPINEPHRINE]
AC50 [2]: > 30 µM | AC50 [3]: > 30 µM | AC50 (Adenosine receptor A3 [4]): 18 µM | AC50 (Progesterone receptor): > 30 µM | AC50 [6]: > 30 µM | AC50 (Melanocortin receptor 3): > 30 µM | AC50 (Adenosine receptor A1): > 30 µM | AC50 [7]: > 30 µM

CC(C(=O)O)c1cccc(Oc2ccccc2)c1 (stereo not drawn) [FENOPROFEN]
AC50 (Adenosine receptor A3 [1]): > 30 µM

CC(C)C(=O)Oc1ccc(CO)cc1[C@H](CCN(C(C)C)C(C)C)c1ccccc1 [FESOTERODINE]
AC50 (Adenosine receptor A3 [1]): > 30 µM

CC1(C)O[C@@H]2C[C@H]3[C@@H]4C[C@H](F)C5=CC(=O)C=C[C@]5(C)[C@@]4(F)[C@@H](O)C[C@]3(C)[C@]2(C(=O)CO)O1 [FLUOCINOLONE ACETONIDE]
AC50 (Adenosine receptor A3 [1]): > 30 µM

O=C(O)P(=O)(O)O [FOSCARNET]
AC50 (Adenosine receptor A3 [1]): > 30 µM

COc1ccccc1OC1(C)OC(=O)c2ccccc2O1 (stereo not drawn) [GUAIMESAL]
AC50 (Adenosine receptor A3 [4]): > 30 µM | AC50 (Progesterone receptor): > 30 µM | AC50 (Melanocortin receptor 3): > 30 µM | AC50 (Adenosine receptor A1): > 30 µM

N=C(N)N/N=C/c1c(Cl)cccc1Cl [GUANABENZ]
AC50 (Adenosine receptor A3 [1]): > 30 µM

C[N+](C)(CCCCCC[N+](C)(C)C1c2ccccc2-c2ccccc21)C1c2ccccc2-c2ccccc21 [HEXAFLUORENIUM]
AC50 (Adenosine receptor A3 [1]): > 30 µM

Source: ChEMBL document CHEMBL5291721, “A preclinical secondary pharmacology resource illuminates target-adverse drug reaction associations of marketed drugs” (Nat Commun, 2023)
